The record followed here is patent publication US20260297070A1, “CYCLIC [COMPOUND LEFT OUT] WRN INHIBITORS” (Nimbus Wadjet, Inc., priority 2023, published 2026).

T1 sequence (Q14191 with tags, fused parts or gaps L1074F limits assumed): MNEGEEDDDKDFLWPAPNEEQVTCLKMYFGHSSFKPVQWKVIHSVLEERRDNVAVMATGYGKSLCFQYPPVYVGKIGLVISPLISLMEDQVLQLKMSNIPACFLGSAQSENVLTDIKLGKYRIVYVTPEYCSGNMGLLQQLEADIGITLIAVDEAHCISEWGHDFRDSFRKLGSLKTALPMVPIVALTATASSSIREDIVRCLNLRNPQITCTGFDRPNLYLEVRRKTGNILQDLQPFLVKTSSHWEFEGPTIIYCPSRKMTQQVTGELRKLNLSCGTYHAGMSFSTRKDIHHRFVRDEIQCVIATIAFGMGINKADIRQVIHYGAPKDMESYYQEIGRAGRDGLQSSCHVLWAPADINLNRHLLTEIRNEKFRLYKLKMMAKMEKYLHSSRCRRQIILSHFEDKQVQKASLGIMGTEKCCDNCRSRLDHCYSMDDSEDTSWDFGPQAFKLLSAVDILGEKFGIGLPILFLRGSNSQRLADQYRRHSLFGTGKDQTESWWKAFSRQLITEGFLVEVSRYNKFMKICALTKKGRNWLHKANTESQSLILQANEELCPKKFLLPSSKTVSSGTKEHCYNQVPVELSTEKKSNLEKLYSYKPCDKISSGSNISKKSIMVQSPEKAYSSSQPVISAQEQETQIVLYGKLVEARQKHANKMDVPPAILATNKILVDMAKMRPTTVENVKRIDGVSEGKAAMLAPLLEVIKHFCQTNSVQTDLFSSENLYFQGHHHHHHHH

This assay concerns the target T1, human Werner helicase (WRN-BV08, Uniprot Q14191, amino acids 517-1235 with L1074F point mutation) (Homo sapiens, UniProt Q14191, L1074F).
T1 construct: Uniprot Q14191, amino acids 517-1235 with L1074F point mutation; TEV-cleavable 8×His (C, cleaved yes); made in house; host or cells: Sf9 insect cells (baculovirus)
Briefly: WRN (BV08) ADP-Glo Assay. Type of assay: biochemical. The note with it: 0.15 nM WRN, 5 μM ATP, 0.1 nM DNA duplex, 15 min preincubation, 60 min at 25° C., pH 7.5, 1% DMSO; read-out: ADP-Glo_hWRN_IC50. An outline of the steps:
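ADP-Glo luminescence read-out of ATP hydrolysis. Conditions: 0.15 nM WRN, 5 μM ATP, 0.1 nM DNA duplex, 1% DMSO, 60 min at 25 °C after 15 min compound preincubation. Max/min controls were DMSO and 20 μM NSC-617145; IC50 from four-parameter fit.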
In general terms: ADP-Glo turns the ADP formed in a reaction into a luminescent signal.
With `COc1cc(CN(C(=O)Cc2ccc(S(F)(F)(F)(F)F)cc2)[C@H]2C=CS(=O)(=O)C2)ccn1` [I-311, N-[(3S)-1,1-dioxo-2,3-dihydro-1lambda6-thiophen-3-yl]-N-[(2-methoxypyridin-4-yl)methyl]-2-[4-(pentafluoro-lambda6-sulfanyl)phenyl]acetamide], the IC50 is above 50 µM.
In the case of `O=C(C1CNc2cc(-c3ccc(F)cc3)ccc21)N(Cc1ccncc1)C1C=CS(=O)(=O)C1` (stereo not drawn) [I-124, N-(1,1-dioxo-2,3-dihydro-1lambda6-thiophen-3-yl)-6-(4-fluorophenyl)-N-[(pyridin-4-yl)methyl]-2,3-dihydro-1H-indole-3-carboxamide], the IC50 was 0.5 to 5 µM.
Consider `COc1cc(CN(C(=O)C2CNc3cc(-c4ccc(F)cc4)ccc32)C2C=CS(=O)(=O)C2)ccn1` (stereo not drawn) [I-121, N-(1,1-dioxo-2,3-dihydro-1lambda6-thiophen-3-yl)-6-(4-fluorophenyl)-N-[(2-methoxypyridin-4-yl)methyl]-2,3-dihydro-1H-indole-3-carboxamide], for which the IC50 was 0.5 to 5 µM.
Regarding `O=C(Cc1nc(C2CC2)cs1)N(Cc1ccncc1)C1C=CS(=O)(=O)C1` (stereo not drawn) [I-580, 2-(4-cyclopropyl-1,3-thiazol-2-yl)-N-(1,1-dioxo-2,3-dihydro-1lambda6-thiophen-3-yl)-N-[(pyridin-4-yl)methyl]acetamide], the IC50 is above 50 µM.
Consider `Cc1cccn1-c1ccc(CC(=O)N(Cc2ccnc(C3(O)CC3)c2)C2C=CS(=O)(=O)C2)c(F)c1` (stereo not drawn) [I-90, N-(1,1-dioxo-2,3-dihydro-1lambda6-thiophen-3-yl)-2-[2-fluoro-4-(2-methyl-1H-pyrrol-1-yl)phenyl]-N-{[2-(1-hydroxycyclopropyl)pyridin-4-yl]methyl}acetamide], for which the IC50 was in the range of 0.5 to 5 µM.
For the compound `O=C(CC1CCN(c2ccccc2)CC1)N(Cc1ccncc1)C1C=CS(=O)(=O)C1` (stereo not drawn) [I-552, N-(1,1-dioxo-2,3-dihydro-1lambda6-thiophen-3-yl)-2-(1-phenylpiperidin-4-yl)-N-[(pyridin-4-yl)methyl]acetamide], the IC50 was above 50 µM.
Next, `CC(C(=O)N(Cc1ccncc1)C1C=CS(=O)(=O)C1)n1cc2ccccc2n1` (stereo not drawn) [I-620, N-(1,1-dioxo-2,3-dihydro-1lambda6-thiophen-3-yl)-2-(2H-indazol-2-yl)-N-[(pyridin-4-yl)methyl]propanamide]: above 50 µM.
As to `COCC(C(=O)N(Cc1ccnc(C(C)(C)O)c1)[C@@H]1C=CS(=O)(=O)C1)c1ccc(S(F)(F)(F)(F)F)cc1` (single isomer, unassigned) [I-675], the IC50 is 10 to 50 µM.
Take `COc1cc(CN(C(=O)C(C)c2ccc(S(F)(F)(F)(F)F)cc2)C2C=CS(=O)(=O)C2)ccn1` (stereo not drawn) [I-126, N-(1,1-dioxo-2,3-dihydro-1lambda6-thiophen-3-yl)-N-[(2-methoxypyridin-4-yl)methyl]-2-[4-(pentafluoro-lambda6-sulfanyl)phenyl]propanamide]: the IC50 was 0.5 to 5 µM.
Next, `CN(CC(C(=O)N(Cc1ccncc1)C1C=CS(=O)(=O)C1)c1ccc(-c2ccc(F)cc2)cc1)S(C)(=O)=O` (stereo not drawn) [I-458, N-(1,1-dioxo-2,3-dihydro-1lambda6-thiophen-3-yl)-2-{4′-fluoro-[1,1′-biphenyl]-4-yl}-3-(N-methylmethanesulfonamido)-N-[(pyridin-4-yl)methyl]propanamide]: above 50 µM; `O=C(C(c1ccc(Cl)cc1)c1ccc(Cl)cc1)N(Cc1ccncc1)C1C=CS(=O)(=O)C1` (stereo not drawn) [I-526, 2,2-bis(4-chlorophenyl)-N-(1,1-dioxo-2,3-dihydro-1lambda6-thiophen-3-yl)-N-[(pyridin-4-yl)methyl]acetamide]: above 50 µM; `O=C(Cc1ccc(-n2cccc2)cc1)N(Cc1ncccn1)C1C=CS(=O)(=O)C1` (stereo not drawn) [I-483, N-(1,1-dioxo-2,3-dihydro-1lambda6-thiophen-3-yl)-N-[(pyrimidin-2-yl)methyl]-2-[4-(1H-pyrrol-1-yl)phenyl]acetamide]: above 50 µM.
Turning to `COc1cc(CN(C(=O)Cn2cc(-c3ccccc3F)cn2)C2C=CS(=O)(=O)C2)ccn1` (stereo not drawn) [I-134, N-(1,1-dioxo-2,3-dihydro-1lambda6-thiophen-3-yl)-2-[4-(2-fluorophenyl)-1H-pyrazol-1-yl]-N-[(2-methoxypyridin-4-yl)methyl]acetamide], the IC50 fell in the range of 0.5 to 5 µM.
As for `CN(C)C(=O)C(C(=O)N(Cc1ccnc(C(C)(C)O)c1)C1C=CS(=O)(=O)C1)c1ccc(-c2ccc(F)cc2)cc1` (stereo not drawn) [I-34, N-(1,1-dioxo-2,3-dihydro-1lambda6-thiophen-3-yl)-2-{4′-fluoro-[1,1′-biphenyl]-4-yl}-N-{[2-(2-hydroxypropan-2-yl)pyridin-4-yl]methyl}-N′,N′-dimethylpropanediamide], the figure is below 0.5 µM; as for `O=C(Cc1ccc(OC(F)F)cc1)N(Cc1ccncc1)C1C=CS(=O)(=O)C1` (stereo not drawn) [I-331, 2-[4-(difluoromethoxy)phenyl]-N-(1,1-dioxo-2,3-dihydro-1lambda6-thiophen-3-yl)-N-[(pyridin-4-yl)methyl]acetamide], 10 to 50 µM; as for `Cc1ccnn1-c1ccc(CC(=O)N(Cc2ccncc2)C2C=CS(=O)(=O)C2)cc1` (stereo not drawn) [I-441, N-(1,1-dioxo-2,3-dihydro-1lambda6-thiophen-3-yl)-2-[4-(5-methyl-1H-pyrazol-1-yl)phenyl]-N-[(pyridin-4-yl)methyl]acetamide], above 50 µM.
`Cc1cccn1-c1ccc(CC(=O)N(Cc2ccn(C)c(=O)c2)C2C=CS(=O)(=O)C2)c(F)c1` (stereo not drawn) [I-173, N-(1,1-dioxo-2,3-dihydro-1lambda6-thiophen-3-yl)-2-[2-fluoro-4-(2-methyl-1H-pyrrol-1-yl)phenyl]-N-[(1-methyl-2-oxo-1,2-dihydropyridin-4-yl)methyl]acetamide]: the IC50 is 0.5 to 5 µM.
Next, `Cc1nn(CC(=O)N(Cc2ccncc2)C2C=CS(=O)(=O)C2)cc1-c1ccccc1` (stereo not drawn) [I-446, N-(1,1-dioxo-2,3-dihydro-1lambda6-thiophen-3-yl)-2-(3-methyl-4-phenyl-1H-pyrazol-1-yl)-N-[(pyridin-4-yl)methyl]acetamide]: above 50 µM; `CS(=O)(=O)N1CCN(C(C(=O)N(Cc2ccncc2)C2C=CS(=O)(=O)C2)c2ccc(-n3cccc3)cc2)CC1` (stereo not drawn) [I-554, N-(1,1-dioxo-2,3-dihydro-1lambda6-thiophen-3-yl)-2-(4-methanesulfonylpiperazin-1-yl)-N-[(pyridin-4-yl)methyl]-2-[4-(1H-pyrrol-1-yl)phenyl]acetamide]: above 50 µM; `O=C(c1ccc(-c2ccccc2)cn1)N(Cc1ccccc1)C1C=CS(=O)(=O)C1` (stereo not drawn) [I-487, N-benzyl-N-(1,1-dioxo-2,3-dihydro-1lambda6-thiophen-3-yl)-5-phenylpyridine-2-carboxamide]: above 50 µM.
Regarding `CC(C)(O)c1cc(CN(C(=O)Cc2ccc(-c3ccc(Cl)cc3)cc2F)C2C=CS(=O)(=O)C2)ccn1` (stereo not drawn) [I-180, 2-{4′-chloro-3-fluoro-[1,1′-biphenyl]-4-yl}-N-(1,1-dioxo-2,3-dihydro-1lambda6-thiophen-3-yl)-N-{[2-(2-hydroxypropan-2-yl)pyridin-4-yl]methyl}acetamide], the IC50 was in the range of 0.5 to 5 µM.
Regarding `O=C(CC1COc2ccccc2C1)N(Cc1ccncc1)C1C=CS(=O)(=O)C1` (stereo not drawn) [I-613, 2-(3,4-dihydro-2H-1-benzopyran-3-yl)-N-(1,1-dioxo-2,3-dihydro-1lambda6-thiophen-3-yl)-N-[(pyridin-4-yl)methyl]acetamide], the IC50 was above 50 µM.
`O=C(CCc1ccc(C(F)(F)F)cc1)N(Cc1ccncc1)C1C=CS(=O)(=O)C1` (stereo not drawn) [I-507, N-(1,1-dioxo-2,3-dihydro-1lambda6-thiophen-3-yl)-N-[(pyridin-4-yl)methyl]-3-[4-(trifluoromethyl)phenyl]propanamide]: the IC50 was above 50 µM.
Next, `O=C(Cc1ccc(N2CCOCC2)cc1)N(Cc1ccncc1)C1C=CS(=O)(=O)C1` (stereo not drawn) [I-564, N-(1,1-dioxo-2,3-dihydro-1lambda6-thiophen-3-yl)-2-[4-(morpholin-4-yl)phenyl]-N-[(pyridin-4-yl)methyl]acetamide]: above 50 µM; `O=C(C1CCn2cc(C(F)(F)F)nc2C1)N(Cc1ccncc1)C1C=CS(=O)(=O)C1` (stereo not drawn) [I-622]: above 50 µM; `O=C(Cc1ncc(-c2ccccc2)s1)N(Cc1ccncc1)C1C=CS(=O)(=O)C1` (stereo not drawn) [I-300, N-(1,1-dioxo-2,3-dihydro-1lambda6-thiophen-3-yl)-2-(5-phenyl-1,3-thiazol-2-yl)-N-[(pyridin-4-yl)methyl]acetamide]: 10 to 50 µM.
As to `O=C([C@H]1CC[C@@H](Cn2cccn2)O1)N(Cc1ccncc1)C1C=CS(=O)(=O)C1` (mixture of isomers) [I-716, rac-(2R,5S)-N-(1,1-dioxo-2,3-dihydro-1lambda6-thiophen-3-yl)-5-[(1H-pyrazol-1-yl)methyl]-N-[(pyridin-4-yl)methyl]oxolane-2-carboxamide], the IC50 is above 50 µM.
Consider `O=C(Cc1ccc(-n2cccc2)cc1)N(Cc1ccc2nccnc2c1)C1C=CS(=O)(=O)C1` (stereo not drawn) [I-251, N-(1,1-dioxo-2,3-dihydro-1lambda6-thiophen-3-yl)-2-[4-(1H-pyrrol-1-yl)phenyl]-N-[(quinoxalin-6-yl)methyl]acetamide], for which the IC50 was 5 to 10 µM.
As for `O=C(Cc1ccc2ccccc2c1)N(Cc1ccncc1)C1C=CS(=O)(=O)C1` (stereo not drawn) [I-315, N-(1,1-dioxo-2,3-dihydro-1lambda6-thiophen-3-yl)-2-(naphthalen-2-yl)-N-[(pyridin-4-yl)methyl]acetamide], the IC50 was 10 to 50 µM.
In the case of `CC(C)(O)c1cc(CN(C(=O)Cc2ccc(-c3ccc(F)c(F)c3)cc2F)C2C=CS(=O)(=O)C2)ccn1` (single isomer, unassigned) [I-332], the IC50 fell in the range of 10 to 50 µM.
